Holding throughout (type): in vivo
In test [1] the test system is Setaria viridis (SETVI). Kind of test: Herbicidal pre-emergence action, 1280 g/ha (Table A8). As to conditions: visual grading after ca. 3 weeks vs untreated controls. An excerpt:
(§1) Seeds of mono- and dicotyledonous weed plants were sown in plastic pots (double sowings with one species of mono- and one species of dicotyledonous weed plants per pot), in sandy loam, and covered with soil. The compounds according to the invention, formulated in the form of wettable powders (WP) or as emulsifiable concentrates (EC), were applied to the surface of the covering soil as an aqueous suspension or as an emulsion, with the addition of 0.5% of an additive, at an application rate of 600 litres of water per hectare (converted). Following treatment, the pots were placed in a greenhouse and kept under optimum growth conditions for the test plants. The visual grading of the damage to the test plants was carried out after ca. 3 weeks in comparison to untreated controls (herbicidal effect in percent (%): 100% effect=plants have died, 0% effect=as control plants). Tables A1 to A11 below, show the effects of selected compounds of the general formula (I) according to Table 1 on various harmful plants and an application rate corresponding to 1280 g/ha obtained by the experimental procedure mentioned above.

Test [2] deals with Stellaria media (STEME). Kind of test: Herbicidal post-emergence action, 320 g/ha, STEME. Conditions: visual grading after ca. 3 weeks. The method, boiled down: (§2)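 Weeds were sown in sandy loam pots and sprayed post-emergence at the single-leaf stage, 2 to 3 weeks after sowing, with WP or EC formulations in water plus 0.5% additive at 600 L/ha. Visual % injury versus untreated controls was scored after ca. 3 weeks in the greenhouse.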

Test [3] concerns Stellaria media (STEME). The test is described as follows: Herbicidal pre-emergence action, 320 g/ha, STEME. As to conditions: visual grading after ca. 3 weeks. The method, boiled down: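 Percent herbicidal effect, graded by eye about 3 weeks after treatment relative to untreated pots (0% matching controls, 100% dead plants). Application of 320 g/ha onto soil covering freshly sown seeds, as aqueous suspension or emulsion plus 0.5% additive at 600 L/ha; pots kept in greenhouse.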

The subject of test [4] is Veronica persica (VERPE). The test is described as follows: Herbicidal post-emergence action, 1280 g/ha, VERPE. Conditions: visual grading vs untreated controls. The method, boiled down: (§3)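 Visual rating ~3 weeks after treatment: 0% equals untreated control, 100% means plants died. Treatment was a 1280 g/ha foliar spray (600 L water/ha, 0.5% additive, WP or EC formulation) applied to single-leaf-stage plants grown 2–3 weeks in sandy loam under controlled conditions.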

The test system of test [5] is Lolium rigidum (LOLRI). Kind of test: Herbicidal pre-emergence action, 1280 g/ha (Table A5). Conditions: visual grading after ca. 3 weeks vs untreated controls. The procedure, abridged:
(§4)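 Weed seeds sown in sandy loam pots and covered with soil; compounds formulated as WP or EC applied to the soil surface in water with 0.5% additive at 600 L water/ha. Pots kept in a greenhouse under optimum growth conditions; damage visually graded after ca. 3 weeks versus untreated controls (0% = as control, 100% = plants dead).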

For test [6], the system named is Abutilon theophrasti (ABUTH). The test is described as follows: Herbicidal pre-emergence action, 1280 g/ha (Table A1). Conditions: visual grading after ca. 3 weeks vs untreated controls.
Description: as §1

Test [7] has as its system Matricaria inodora (MATIN). The test is described as follows: Herbicidal pre-emergence action, 1280 g/ha (Table A6). As to conditions: visual grading after ca. 3 weeks vs untreated controls. The procedure, abridged: as §4
For test [8], the system named is Matricaria inodora (MATIN). Kind of test: Herbicidal post-emergence action, 320 g/ha, MATIN. As to conditions: visual grading after ca. 3 weeks. An excerpt: (§5) Seeds of mono- and dicotyledonous weed plants were sown in plastic pots (double sowings with one species of mono- and one species of dicotyledonous weed plants per pot), in sandy loam, covered with soil and grown under controlled growth conditions. 2 to 3 weeks after sowing, the test plants were sprayed in the single-leaf stage. The compounds according to the invention, formulated in the form of wettable powders (WP) or as emulsifiable concentrates (EC), were sprayed onto the green plant parts as an aqueous suspension or as an emulsion, with the addition of 0.5% of an additive, at an application rate of 600 litres of water per hectare (converted). The test plants were placed in the greenhouse for ca. 3 weeks under optimum growth conditions, and then the effect of the preparations was assessed visually in comparison with untreated controls (herbicidal effect in percent (%): 100% effect=plants have died, 0% effect=as control plants).
(§6) Tables D1 to D8 below, show the effects of selected compounds of the general formula (I) according to Table 1 on various harmful plants using an application rate corresponding to 320 g/ha obtained by the experimental procedure mentioned above.

Test [9] relates to Matricaria inodora (MATIN). Kind of test: Herbicidal post-emergence action, 1280 g/ha (Table B6). Conditions: visual assessment after ca. 3 weeks vs untreated controls. The method, boiled down:
(§7)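 Visual percent damage relative to untreated plants (100% dead, 0% no effect) was rated about 3 weeks after treatment in the greenhouse. WP or EC preparations with 0.5% additive were applied at 600 L water/ha onto single-leaf-stage plants grown 2–3 weeks in sandy loam pots.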

The test system of test [10] is Amaranthus retroflexus (AMARE). The test is described as follows: Herbicidal post-emergence action, 320 g/ha, AMARE. As to conditions: visual grading after ca. 3 weeks. The procedure, abridged: as §2
The subject of test [11] is Amaranthus retroflexus (AMARE). Kind of test: Herbicidal pre-emergence action, 1280 g/ha (Table A11). As to conditions: visual grading after ca. 3 weeks vs untreated controls. The procedure, abridged:
as §4

The subject of test [12] is Stellaria media (STEME). The test is described as follows: Herbicidal pre-emergence action, 1280 g/ha (Table A9). As to conditions: visual grading after ca. 3 weeks vs untreated controls. The procedure, abridged:
as §4

The subject of test [13] is Stellaria media (STEME). Kind of test: Herbicidal post-emergence action, 1280 g/ha (Table B9). As to conditions: visual assessment after ca. 3 weeks vs untreated controls. The method, boiled down:
as §7

Test [14] concerns Veronica persica (VERPE). Kind of test: Herbicidal post-emergence action, 320 g/ha, VERPE. As to conditions: visual grading after ca. 3 weeks.
Description: as §5, §6

Test [15] relates to Kochia scoparia (KCHSC). Kind of test: Herbicidal post-emergence action, 1280 g/ha (Table B4). Conditions: visual assessment after ca. 3 weeks vs untreated controls. The procedure, abridged:
as §7

For test [16], the system named is Lolium rigidum (LOLRI). Kind of test: Herbicidal pre-emergence action, 320 g/ha (Table C2). As to conditions: visual grading after ca. 3 weeks vs untreated controls.
Description: as §1, with “Tables C1” for “Tables A1”, “to C6” for “to A11”, “plants using” for “plants and”, “to 320” for “to 1280”

In test [17] the test system is Abutilon theophrasti (ABUTH). The test is described as follows: Herbicidal post-emergence action, 320 g/ha, ABUTH. Conditions: visual grading after ca. 3 weeks. The procedure, abridged: as §2
The test system of test [18] is Amaranthus retroflexus (AMARE). Kind of test: Herbicidal post-emergence action, 1280 g/ha, AMARE. Conditions: visual grading vs untreated controls. The procedure, abridged:
as §3

In test [19] the test system is Abutilon theophrasti (ABUTH). The test is described as follows: Herbicidal post-emergence action, 1280 g/ha (Table B1). Conditions: visual assessment after ca. 3 weeks vs untreated controls. The method, boiled down:
as §7

Test [20] has as its system Lolium rigidum (LOLRI). The test is described as follows: Herbicidal post-emergence action, 1280 g/ha (Table B5). As to conditions: visual assessment after ca. 3 weeks vs untreated controls.
Description: as §5, with “plants). Tables B1 to B11 below, show the effects of selected compounds of the general formula (I) according to Table 1 on various harmful plants using an application rate corresponding to 1280 g/ha obtained by the experimental procedure mentioned above.” for “plants).”

Test [21] concerns Lolium rigidum (LOLRI). The test is described as follows: Herbicidal post-emergence action, 320 g/ha, LOLRI. As to conditions: visual grading after ca. 3 weeks.
Description: as §5, §6

For test [22], the system named is Kochia scoparia (KCHSC). The test is described as follows: Herbicidal post-emergence action, 320 g/ha, KCHSC. As to conditions: visual grading after ca. 3 weeks.
Description: as §5, §6

Test [23] has as its system Kochia scoparia (KCHSC). The test is described as follows: Herbicidal pre-emergence action, 1280 g/ha (Table A4). As to conditions: visual grading after ca. 3 weeks vs untreated controls. The procedure, abridged:
as §4

For `CCOC(=O)Oc1c(C)nn(C)c(=O)c1Oc1ccccc1C(F)(F)F` [Example I-009, [1,3-dimethyl-6-oxo-5-[2-(trifluoromethyl)phenoxy]pyridazin-4-yl] ethyl carbonate], the “herbicidal effect SETVI” value in test [1] is on record as 100%.
Turning to `Cc1nn(C)c(=O)c(Oc2cc(F)ccc2C2CC2)c1O` [Example I-046], the “herbicidal effect STEME” value in test [2] came out at 90%; in [3] it was 100%; in test [12] it was 100%; in test [13] it was 100%. Also, the “herbicidal effect VERPE” value in test [4] is recorded as 100%; in [14] it was 90%. Also, the results for the “herbicidal effect LOLRI” value in test [5], in [16] and in test [20] were 100%, 90% and 100%, respectively. The “herbicidal effect ABUTH” value worked out at 90% in test [6], 100% in test [17] and 100% in [19]. The figures for the “herbicidal effect MATIN” value in test [7], in test [8] and in [9] were 90%, 90% and 100%, respectively. Besides, the “herbicidal effect AMARE” value in test [10] was 90%; in test [11], 90%; in test [18], 100%. Besides, in test [15], the “herbicidal effect KCHSC” value is reported as 90%.
Regarding `CC(=O)Oc1c(C)nn(C)c(=O)c1Oc1ccccc1OC(F)F` [Example I-081], the “herbicidal effect STEME” value in test [2], in test [12] and in test [13] was 90% throughout. Further, the “herbicidal effect VERPE” value in [4] is on record as 100%. Further, the “herbicidal effect LOLRI” value in test [5], in test [21] and in [20] was 90% in each case. Besides, the entries for the “herbicidal effect MATIN” value in test [7], in [8] and in test [9] were 90%, 90% and 100%, respectively. The “herbicidal effect AMARE” value is recorded as 90% in [10] and 100% in test [18]. Further, the “herbicidal effect KCHSC” value in test [15] turned out to be 100%. The “herbicidal effect ABUTH” value in test [17] was 90%; in [19] it was 100%.
As for `Cc1nn(C)c(=O)c(Oc2cc(Cl)ccc2C2CC2)c1O` [Example I-071], the “herbicidal effect STEME” value in [2] was 90%; in test [12], 90%; in test [13], 100%. Besides, the “herbicidal effect VERPE” value in [4] is 90%. Further, in test [5], the “herbicidal effect LOLRI” value is 100%. Besides, the “herbicidal effect ABUTH” value is recorded as 90% in test [6], 100% in [17] and 100% in test [19]. The “herbicidal effect MATIN” value in test [7] is 100%. For the same molecule, the results for the “herbicidal effect AMARE” value in test [10] and in [18] were 90% and 100%, respectively. In addition, in test [1], the “herbicidal effect SETVI” value is recorded as 90%.
In the case of `CCOC(=O)Oc1c(C)nn(C)c(=O)c1Oc1cccc(F)c1C1CC1` [Example I-058], the “herbicidal effect KCHSC” value in [22] worked out at 90%; in [23], 90%; in test [15], 100%. Also, the “herbicidal effect STEME” value in test [2], in [12] and in test [13] was 90% in each case. Besides, the “herbicidal effect VERPE” value in [4] is given as 90%. Further, the “herbicidal effect LOLRI” value turned out to be 90% in [5], 90% in [21] and 100% in [20]. In addition, the “herbicidal effect MATIN” value in test [9] is given as 100%. Moreover, the “herbicidal effect AMARE” value in test [10] and in test [18] was 90% in each case. In addition, the “herbicidal effect ABUTH” value in test [17] came out at 90%; in test [19] it was 100%.
Regarding `CCOC(=O)Oc1c(C)nn(C)c(=O)c1Oc1c(F)cccc1C1CC1` [Example I-085], the results for the “herbicidal effect STEME” value in [2], in test [12] and in [13] were 100%, 90% and 100%, respectively. Also, the entries for the “herbicidal effect VERPE” value in [4] and in test [14] were 100% and 90%, respectively. Besides, the “herbicidal effect LOLRI” value in [5] is 100%; in test [21], 90%; in [20], 100%. For the same molecule, in test [9], the “herbicidal effect MATIN” value is 100%. The entries for the “herbicidal effect AMARE” value in test [10] and in test [18] were 90% and 100%, respectively. Also, the “herbicidal effect KCHSC” value in test [15] was 100%. Further, the results for the “herbicidal effect ABUTH” value in test [17] and in test [19] were 90% and 100%, respectively.

(Values after US20240239755A1, “SUBSTITUTED PYRIDAZINONES, SALTS OR N-OXIDES THEREOF AND THEIR USE AS HERBICIDALLY ACTIVE SUBSTANCES” (Bayer Aktiengesellschaft, priority 2021, published 2024).)
